From US20100173935A1, “Muscarinic Receptor Agonists that are Effective in the Treatment of Pain, Alzheimer's Disease and Schizophrenia” (AstraZeneca AB, priority 2006, published 2010) come the findings set out here.

Holding throughout (format): cell-based
Assay [1] deals with T1, hM1 (human Muscarinic receptor subtype 1) (Homo sapiens, UniProt P11229).
T1 construct: expressed in transfected cells; host or cells: CHO cells (ATCC)
T1 sequence (P11229 1-460): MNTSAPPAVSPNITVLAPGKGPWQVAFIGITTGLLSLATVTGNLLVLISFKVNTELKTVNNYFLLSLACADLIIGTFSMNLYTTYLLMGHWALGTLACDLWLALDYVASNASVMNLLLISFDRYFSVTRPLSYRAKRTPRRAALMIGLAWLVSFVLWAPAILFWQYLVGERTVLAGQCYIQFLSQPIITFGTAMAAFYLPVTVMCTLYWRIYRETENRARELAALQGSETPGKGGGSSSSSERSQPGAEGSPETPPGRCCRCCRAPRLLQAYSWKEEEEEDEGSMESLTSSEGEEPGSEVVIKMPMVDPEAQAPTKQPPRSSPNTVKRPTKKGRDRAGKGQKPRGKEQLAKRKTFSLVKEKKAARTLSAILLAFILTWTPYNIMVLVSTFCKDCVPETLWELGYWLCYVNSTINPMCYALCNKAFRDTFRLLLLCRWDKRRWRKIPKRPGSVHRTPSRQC
As to the kind of experiment: Human M1 calcium mobilization FLIPR assay. The conditions noted are these: CHO cells expressing hM1, Ca2+ release. The protocol:
(§1) The compound activity in the present invention (EC50 or IC50) was measured using a 384 plate-based imaging assay that monitors drug induced intracellular Ca^2+ release in whole cells. Activation of hM1 (human Muscarinic receptor subtype 1, gene bank access NM_000738), rM1 (rat Muscarinic receptor subtype 1, gene bank access NM_080773), hM3 (human Muscarinic receptor subtype 3, gene bank access NM_000740NM_000740) and hM5 (human Muscarinic receptor subtype 5, gene bank access NM_0121258), receptors expressed in CHO cells (chinese hamster ovary cells, ATCC) was quantified in a Molecular Devices FLIPR II™ instrument as an increase in fluorescent signal. Inhibition of hM3 and hM5 by compounds was determined by the decrease in fluorescent signal in response to 20 nM carbachol activation.
(§2) CHO cells were plated in 384-black polylysine coated plate (Costar) at 8000 cells/well/50 μl for 24 hours or 4000 cells/well for 48 hours in a humidified incubator (5% CO2 and 37° C.) in DMEM/F12 medium without selection agent. Prior to the experiment the cell culture medium was removed from the plates by inversion. A loading solution of 30 μl of Hank's balanced salt solution, 10 mM Hepes and 2.5 mM Probenicid at Ph 7.4 (Cat no. 311-520-VL, Wisent) with 2 μM calcium indicator dye (FLUO-3AM, Molecular Probes F14202) was added to each well. Plates were incubated at 37° C. for 60 minutes prior to start the experiment. The incubation was terminated by washing the cells four times in assay buffer, leaving a residual 25 μl buffer per well. Cell plates were then transferred to the FLIPR, ready for compound additions.
(§3) The day of experiment, carbachol and compounds were diluted in three-fold concentration range (10 points serial dilution) for addition by FLIPR instrument. For all calcium assays, a baseline reading was taken for 30 seconds followed by the addition of 12.5 μl (25 μl for hM1 and rM1) of compounds, resulting in a total well volume of 37.5 μl (50 μl for hM1 and rM1). Data were collected every 1.6 seconds for 300 seconds. For hM3 and hM5 an additional 12.5 μl of carbachol (20 nM final) was added at 300 seconds. After this addition of carbachol (producing a final volume of 50 μl), the FLIPR continued to collect data every 2 seconds for 240 seconds. The fluorescence emission was read using filter 1 (emission 520-545 nm) by the FLIPR on board CCD camera.
(§4) Calcium mobilization output data were calculated as the maximal relative fluorescence unit (RFU) minus the minal value for both compound and agonist reading frame (except for hM1 and rM1 using only the maximal RFU). Data were analyzed using sigmoidal fits of a non-linear curve-fitting program (XLfit version 5.0.6 from ID Business Solutions Limited, Guildford, UK). All EC50 and IC50 values are reported as arithmetic means±standard error of mean of ‘n’ independent experiments.
In general terms: Calcium flux is commonly read through the fluorescence of an indicator in the cells.

Assay [2] concerns the target T2, hM3 (human Muscarinic receptor subtype 3) (Homo sapiens, UniProt P20309).
T2 construct: expressed in transfected cells; host or cells: CHO cells (ATCC)
As to the kind of experiment: Human M3 calcium mobilization FLIPR assay. The settings on record: CHO cells expressing hM3, Ca2+ release. The protocol:
as §1, §2, §3, §4

Assay [3] addresses T3, hM5 (human Muscarinic receptor subtype 5) (Homo sapiens, UniProt P08912).
T3 construct: expressed in transfected cells; host or cells: CHO cells (ATCC)
T3 sequence (P08912 1-532): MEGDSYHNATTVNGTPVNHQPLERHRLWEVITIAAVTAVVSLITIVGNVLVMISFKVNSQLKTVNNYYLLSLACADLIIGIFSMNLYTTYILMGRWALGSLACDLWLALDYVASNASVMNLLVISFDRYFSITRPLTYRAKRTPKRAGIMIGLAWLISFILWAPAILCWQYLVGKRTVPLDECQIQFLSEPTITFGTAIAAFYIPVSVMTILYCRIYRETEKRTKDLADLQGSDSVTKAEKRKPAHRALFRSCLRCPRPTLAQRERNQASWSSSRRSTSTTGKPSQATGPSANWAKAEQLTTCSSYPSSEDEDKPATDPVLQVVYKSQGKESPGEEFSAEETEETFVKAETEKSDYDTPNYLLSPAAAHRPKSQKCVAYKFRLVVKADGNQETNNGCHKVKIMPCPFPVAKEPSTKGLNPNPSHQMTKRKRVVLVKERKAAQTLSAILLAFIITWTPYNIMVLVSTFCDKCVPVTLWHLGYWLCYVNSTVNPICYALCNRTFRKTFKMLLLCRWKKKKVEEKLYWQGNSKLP
As to the kind of experiment: Human M5 calcium mobilization FLIPR assay. The conditions noted are these: CHO cells expressing hM5, Ca2+ release. How it is done:
as §1, §2, §3, §4

A value given as a limit tells only on which side of the number the result lay.

T2 sequence (P20309 whole entry): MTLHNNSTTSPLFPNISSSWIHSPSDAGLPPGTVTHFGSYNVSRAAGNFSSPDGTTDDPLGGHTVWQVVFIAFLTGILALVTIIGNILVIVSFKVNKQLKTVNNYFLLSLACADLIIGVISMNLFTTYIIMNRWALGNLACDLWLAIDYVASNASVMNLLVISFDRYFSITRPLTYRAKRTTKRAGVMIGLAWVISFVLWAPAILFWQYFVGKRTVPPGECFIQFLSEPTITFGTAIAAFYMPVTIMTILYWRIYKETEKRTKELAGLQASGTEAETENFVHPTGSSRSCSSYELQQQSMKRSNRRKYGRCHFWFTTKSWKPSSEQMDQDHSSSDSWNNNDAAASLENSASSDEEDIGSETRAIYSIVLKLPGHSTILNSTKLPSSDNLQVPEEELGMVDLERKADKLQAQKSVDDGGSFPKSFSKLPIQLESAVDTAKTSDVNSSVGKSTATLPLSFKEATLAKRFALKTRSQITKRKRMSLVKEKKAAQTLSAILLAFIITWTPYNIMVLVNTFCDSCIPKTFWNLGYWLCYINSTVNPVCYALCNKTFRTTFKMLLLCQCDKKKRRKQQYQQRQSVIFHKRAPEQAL

Turning to `CCOC(=O)N1CC[C@@H](N2CCC(n3c(=O)[nH]c4ccccc43)CC2)C1` [Example 16, Ethyl (3R)-3-[4-(2-oxo-2,3-dihydro-1H-benzimidazol-1-yl)piperidin-1-yl]pyrrolidine-1-carboxylate], the EC50 (usually the concentration needed to bring the measured effect to its halfway point) was 0.13 µM in assay [1], greater than 40 µM in assay [2] and greater than 40 µM in assay [3].
With `CCOC(=O)N1CC[C@H](N2CCC(n3c(=O)[nH]c4ccc(Cl)cc43)CC2)C1` [Example 42, Ethyl (3S)-3-[4-(6-chloro-2-oxo-2,3-dihydro-1H-benzimidazol-1-yl)piperidin-1-yl]pyrrolidine-1-carboxylate], in assay [1], the EC50 stood at 0.003 µM.
The same measure, in the same setting: the result for `O=C1CCCN1CCCC(=O)N1CC[C@H](N2CCC(n3c(=O)[nH]c4ccccc43)CC2)C1` [Example 22, 1-(1-{(3S)-1-[4-(2-oxopyrrolidin-1-yl)butanoyl]pyrrolidin-3-yl}piperidin-4-yl)-1,3-dihydro-2H-benzimidazol-2-one] reads 0.0379 µM.
As to `CCOC(=O)N1CCC(N2CCC(C3C(=O)Nc4ccccc43)CC2)C1` (centres unmarked) [Example 13, Ethyl 3-[4-(2-oxo-2,3-dihydro-1H-indol-3-yl)piperidin-1-yl]pyrrolidine-1-carboxylate], the EC50 in assay [1] was 0.113 µM; in assay [2], greater than 40 µM; in assay [3], greater than 40 µM.
For `CCOC(=O)N1CC[C@H](N2CCC(N3C(=O)Cc4ccccc43)CC2)C1` [Example 26, Ethyl (3S)-3-[4-(2-oxo-2,3-dihydro-1H-indol-1-yl)piperidin-1-yl]pyrrolidine-1-carboxylate], the EC50 is 0.0308 µM in assay [1], greater than 40 µM in assay [2] and 0.341 µM in assay [3].
Taken in the same sequence, the figures for `O=C(C1CCCC1)N1CC[C@H](N2CCC(n3c(=O)[nH]c4ccccc43)CC2)C1` [Example 19, 1-{1-[(3S)-1-(cyclopentylcarbonyl)pyrrolidin-3-yl]piperidin-4-yl}-1,3-dihydro-2H-benzimidazol-2-one] were 0.0096 µM, 2.08 µM and 0.833 µM.
Turning to `O=C1CCCN1CCC(=O)N1CC[C@H](N2CCC(N3C(=O)Cc4ccccc43)CC2)C1` [Example 29, 1-(1-{(3S)-1-[3-(2-oxopyrrolidin-1-yl)propanoyl]pyrrolidin-3-yl}piperidin-4-yl)-1,3-dihydro-2H-indol-2-one], the results for the EC50 in assay [1], in assay [2] and in assay [3] were 0.0035 µM, 2.5 µM and 0.708 µM, respectively.
As to `CCOC(=O)N1CC[C@H](N2CCC(n3c(=O)[nH]c4ccc(C#N)cc43)CC2)C1` [Example 41, Ethyl (3S)-3-[4-(6-cyano-2-oxo-2,3-dihydro-1H-benzimidazol-1-yl)piperidin-1-yl]pyrrolidine-1-carboxylate], the figures for the EC50 in assay [1], in assay [2] and in assay [3] were 0.0034 µM, 2.68 µM and 0.534 µM, respectively.
With `Cn1c(=O)n(C2CCN([C@H]3CCN(C(=O)CCN4CCCC4=O)C3)CC2)c2ccccc21` [Example 24, 1-methyl-3-(1-{(3S)-1-[3-(2-oxopyrrolidin-1-yl)propanoyl]pyrrolidin-3-yl}piperidin-4-yl)-1,3-dihydro-2H-benzimidazol-2-one], the EC50 in assay [1] was 0.203 µM; in assay [2], greater than 40 µM; in assay [3] it was greater than 40 µM.
For `CCOC(=O)N1CC[C@H](N2CCC(n3c(=O)[nH]c4ccc(F)cc43)CC2)C1` (single isomer, unassigned) [Example 35], the values for the EC50 in assay [1], in assay [2] and in assay [3] were 0.0045 µM, 5.96 µM and 0.905 µM, respectively.
In the case of `CCOC(=O)N1CC[C@@H](N2CCC(n3c(=O)[nH]c4ccc(F)cc43)CC2)C1` (single isomer, unassigned) [Example 36], the results for the EC50 in assay [1], in assay [2] and in assay [3] were 0.0408 µM, greater than 40 µM and greater than 40 µM, respectively.
